Measured values: publication PMC11123956, “Nobiletin Stimulates Adrenal Hormones and Modulates the Circadian Clock in Mice” (Nutrients, 2024)
Like-named read-outs stand apart in the source and are kept apart here.

Columns and labels:
Bmal1 mRNA = assay: Real-time RT-PCR of Bmal1 mRNA in peripheral tissues; type: in vivo, mice; conditions: after a single treatment
Method: (§1) Male C57BL/6J mice (7 weeks old) were purchased from Charles River Japan (Kanagawa, Japan) and used for the serum hormone assay and RT-PCR. Male ICR mice were purchased from Tokyo Laboratory Animals Science Co., Ltd. (Tokyo, Japan), and female PERIOD2::LUCIFERASE (PER2::LUC) knock-in mice (ICR background) bred at Waseda University were used for blood glucose measurements and in vivo imaging assays, respectively. The mice were all housed under conditions of controlled temperature (23 °C ± 3 °C), humidity (50% ± 20%), and lighting (lights on from 07:00 to 19:00 at Taisho Pharmaceutical Co., Ltd. or from 08:00 to 20:00 at Waseda University). In the 24 h cycle, Zeitgeber time 0 (ZT0) was designated as the time when the lights were turned on, and ZT12 was designated as the time when the lights were turned off. All the mice were given access to food and tap water ad libitum, and nobiletin (10–100 mg/kg; purchased from FUJIFILM Wako Pure Chemical Corporation, Osaka, Japan) was administered by intraperitoneal (i.p.) injection in the vehicle (10 mL/kg body weight) containing 0.5% carboxymethyl cellulose (CMC). Rolipram (PDE4 inhibitor, FUJIFILM Wako Pure Chemical Corporation) and SR1078 (RORα/γ agonist, FUJIFILM Wako Pure Chemical Corporation) were also used for the experiment at 10 mg/kg in 0.5% CMC [12]. Mice were euthanized by rapid decapitation for whole blood samples.
(§2) Figure 3 Nobiletin stimulated adrenaline and corticosterone secretion, and induced acute clock gene expression changes. (A–C) Mice received intraperitoneal injections of control (0.5% CMC) or nobiletin (10 or 100 mg/kg) at ZT3. (A) Serum corticosterone at 1 h after treatment (n = 6 in each). $$$ p < 0.001 by Tukey’s multiple comparisons test. (B) Serum corticosterone and adrenaline at 1, 2, and 4 h after treatment (n = 4 in each). # p < 0.05 vs. control at each time point by Mann–Whitney test; ** p < 0.01 vs. control at each time point by Student’s t-test. (C) Blood glucose changes after treatment (n = 9 in each). Statistics of 2-way repeated ANOVA are indicated on the graph. […]

PDE4B = system: PDE4B; design: method as in PMID 22451408; conditions: cited from earlier work
PDE1C = system: PDE1C; design: method as in PMID 22451408; conditions: cited from earlier work
corticosterone = conditions: cited from earlier work
CRF [1] = system: CRF; design: method as in PMID 9179387; conditions: isolated hypothalamic in vitro; cited from earlier work
CRF [2] = system: CRF; design: method as in PMID 9179387; conditions: intraperitoneal injection to mice; cited from earlier work
Per2 mRNA = assay: Real-time RT-PCR of Per2 mRNA in peripheral tissues; type: in vivo, mice; conditions: stomach and lung, 2 h after 10 mg/kg i.p.
Method: as §1, with “samples. […]” for “samples.”

serum adrenaline = assay: Serum adrenaline ELISA after i.p. injection; type: in vivo, mice; conditions: 10 mg/kg i.p. at ZT3, 1 h after treatment
Method: (§3) Male C57BL/6J mice (7 weeks old) were purchased from Charles River Japan (Kanagawa, Japan) and used for the serum hormone assay and RT-PCR. Male ICR mice were purchased from Tokyo Laboratory Animals Science Co., Ltd. (Tokyo, Japan), and female PERIOD2::LUCIFERASE (PER2::LUC) knock-in mice (ICR background) bred at Waseda University were used for blood glucose measurements and in vivo imaging assays, respectively. The mice were all housed under conditions of controlled temperature (23 °C ± 3 °C), humidity (50% ± 20%), and lighting (lights on from 07:00 to 19:00 at Taisho Pharmaceutical Co., Ltd. or from 08:00 to 20:00 at Waseda University). In the 24 h cycle, Zeitgeber time 0 (ZT0) was designated as the time when the lights were turned on, and ZT12 was designated as the time when the lights were turned off. […]
(§4) Serum corticosterone, adrenaline, and adreno-corticotropic hormone (ACTH) levels, and corticotropin releasing factor (CRF) in the hypothalamus, were measured using enzyme-linked immunosorbent assay (ELISA). […] Blood glucose levels were measured using a Glucose PILOT kit (Aventir Biotech, LLC, Carlsbad, CA, USA). The range of blood glucose that could be precisely measured with the kit was 20–600 mg/dL. […]

adrenaline = system: adrenaline; design: method as in PMID 9245486; conditions: intraperitoneal, 40–200 μg/kg; cited from earlier work
Per1 mRNA = assay: Real-time RT-PCR of Per1 mRNA in peripheral tissues; type: in vivo, mice; conditions: stomach and lung, 2 h after 10 mg/kg i.p.
Method: as §1, §2

serum corticosterone = assay: Serum corticosterone ELISA after i.p. injection; type: in vivo, mice; conditions: 10 mg/kg i.p. at ZT3, 1 h after treatment
Method: as §3, §4

With `O=C(Nc1ccc(C(O)(C(F)(F)F)C(F)(F)F)cc1)c1ccc(C(F)(F)F)cc1` [SR1078] the Bmal1 expression (Bmal1 mRNA) was “did not change significantly”.

In the case of `COc1cc(-c2cc(=O)c3c(O)c(OC)c(O)c(OC)c3o2)ccc1O` [Sudachitin], the “inhibition of PDE4B” value (PDE4B) is given as “inhibit” and the “inhibition of PDE1C” value (PDE1C) is given as “inhibit”.

For `CCCCn1c(=O)c2c(ncn2CC(C)=O)n(CCCC)c1=O` [denbufylline], the corticosterone secretion (corticosterone; via the HPA system) is listed as “promotes corticosterone secretion”, the CRF production (CRF [1]) is listed as “significant production of CRF” and the “CRF induction in vivo” value (CRF [2]) is listed as “produced CRF induction”.

In the case of `COc1ccc(C2CNC(=O)C2)cc1OC1CCCC1` (stereo not drawn) [rolipram], the “Per2 mRNA changes” value (Per2 mRNA) is given as “detected”, the corticosterone secretion (corticosterone; intraperitoneal, 40–200 μg/kg) is given as “increases” and the serum corticosterone (corticosterone; low dose, 1.6 and 8 μg/kg) is given as “did not produce serum corticosterone increase”. The adrenaline secretion (serum adrenaline) was “detected”, the adrenaline secretion (adrenaline) was “increases” and the “Per1 mRNA changes” value (Per1 mRNA) was “detected”. The CRF production (CRF [1]) was “significant production of CRF”, the corticosterone secretion (serum corticosterone) was “detected” and the Bmal1 expression (Bmal1 mRNA) was “did not change”.
